Data from patent US6133279A, “Therapeutic agents for renal diseases and organ preservatives” (Chugai Seiyaku Kabushiki Kaisha, priority 1996, dated 2000).
Like-named read-outs stand apart in the source and are kept apart here.

What was measured:
[1] = system: puromycin-induced nephrosis model; assay: Puromycin-induced nephrosis (1), preadministration (in vivo); parameters: species or system rat (male SD rats); details: day 8; for Creatinine clearance: control 576 ± 148; for Creatinine: serum, control 0.93 ± 0.21
Procedure: Effect of the compound of the present invention on an in vivo renal disease was studied using a puromycin-induced nephrosis model.
A puromycin-induced renal failure model was prepared from rats in groups of 5-8 each (6 week-old male SD rats) fed with high-fat diet. High-fat diet feeding was started by free access to high-fat diet (cholesterol level 1.25%) from 7 days before puromycin treatment. Puromycin (puromycin aminonucleoside, SIGMA Chemical Co.) treatment was performed by intraperitoneal administration at a dose of 100 mg/kg. The test compound was administered as a solution in soybean oil via oral route (4 ml/kg). Control group was orally administered soybean oil alone. The administration of compound was started from 3 days before the puromycin treatment once a day. After the puromycin treatment, the oral administration of the compound was continued.
Renal functions were determined by using urine and blood samples collected on day 8 after the puromycin treatment. Volume of urine and the creatinine levels in serum and urine were evaluated to calculate creatinine clearance as an indication of renal functions.

[2] = system: porcine kidney-derived LLC-PK1 cells; assay: Protective effect against oxidized LDL-induced injury of porcine kidney-derived LLC-PK1 cells (1); assay type: cell-based; details: Sus scrofa, LLC-PK1, 6 h, mean ± standard deviation, read-out: Cytoprotection rate (%)
Procedure: For the purpose of evaluating in vitro cytoprotective effect of the compounds of the present invention, a cytoprotective study was performed using porcine kidney-derived LLC-PK1 cells (ATCC-CRL-13921) injured by oxidized low-density lipoprotein (oxidized LDL).
Oxidized LDL was prepared by incubating 1 mg/ml of rabbit LDL in PBS (-) in the presence of 10 μM CuSO4 at 37° C. for 24 hours. Cell culture was carried out by plating 1.25×10^4 cells/250 μl/well on a 48-well plate containing M199 medium containing 3% FBS. Test compounds were dissolved or suspended in ethanol and added to the wells in an amount of 1.25 μl/well to a concentration of 0.1, 1 or 10 μM in each well. After 16 hours or immediately after the addition of the compounds, oxidized LDL was added to the wells. Probucol, α-tocopherol and Trolox which is a water-soluble analogue of α-tocopherol were used as reference control compounds. Oxidized LDL was diluted twice with saline and then added to the wells in an amount of 62.5 μl/well to a concentration of 100 μg/ml and the cells were cultured for 6 hours after addition of the oxidized LDL. Then, 162.5 μl/well of the culture medium were collected and measured for the lactate dehydrogenase (LDH) level (LD-L: SIGNA DIAGNOSTICS) having leaked into the medium.
The magnitude of cytoprotective effect was expressed as the cytoprotection rate which was determined by calculating the data assuming that the magnitude in wells containing oxidized LDL is 0% and that the magnitude in wells containing saline is 100%.

[3] = system: puromycin-induced nephrosis model; assay: Puromycin-induced nephrosis (2), postadministration (in vivo); parameters: species or system rat (male SD rats); details: 200 mg/kg oral once a day from the day following puromycin
Procedure: Effect of the compounds of the present invention on an in vivo renal disease was studied using a puromycin-induced nephrosis model. A puromycin-induced renal failure model was prepared from rats in groups of 5-8 each (6 week-old male SD rats) fed with high-fat diet. High-fat diet feeding was started by free access to high-fat diet (cholesterol level 1.25%) from 7 days before puromycin treatment. Puromycin (puromycin aminonucleoside, SIGMA Chemical Co.) treatment was performed by intraperitoneal administration at a dose of 100 mg/kg. Test compounds were administered as a solution in soybean oil via oral route (4 ml/kg). Control group was orally administered soybean oil alone. Probucol and a water-soluble α-tocopherol analogue, Trolox, were used as reference control compounds. The compounds were orally administered once a day from the following day of the puromycin treatment. Renal functions were determined by using urine and blood samples. The volume of urine, urea nitrogen level and creatinine levels of serum and urine were evaluated to calculate creatinine clearance as an indication of renal functions.

[4] = system: ischemic acute renal failure model; assay: Ischemic acute renal failure model, renal ischemia 60 minutes (in vivo); parameters: species or system rat (male SD rats); details: 200 mg/kg oral once a day
Procedure: Effect of a compound of the present invention on an in vivo renal disease was studied using an ischemic acute renal failure model.
An ischemic acute renal failure model was prepared from in groups of 8 each rats (male SD rats, weight: 224-285 g) fed with high-fat diet. High-fat diet feeding was started by free access to high-fat diet (cholesterol level 1.25%) from 7 or 8 days prior to unilateral nephrectomy and left renal artery clamping. The test compound was administered as a solution in soybean oil via oral route (4 ml/kg). Control group was orally administered soybean oil alone. The administration of compound was started from 4 or 5 days before the ischemic treatment at a dose of 200 mg/kg once a day. After the ischemia treatment, the oral administration of the compound was continued at a frequency of once a day. The ischemic treatment was performed by removing the right kidney and clipping a renal artery of the left kidney for 30 or 60 minutes.
Renal functions after ischemic treatment were determined by using urine and blood samples daily collected. Urine volume and the creatinine level of serum and urine were evaluated to calculate creatinine clearance as an indication of renal functions. Influences of high-fat diet feeding were monitored by measuring serum cholesterol level.

[5] = 20 mg/kg oral once a day from 3 days before puromycin
[6] = 200 mg/kg oral once a day from 3 days before puromycin, P < 0.05
[7] = compound added 16 hours before adding oxidized LDL
[8] = compound added immediately before adding oxidized LDL

CCCCCC1(CCCCC)Cc2c(cc(C(C)(C)C)c(O)c2C(C)(C)C)O1 [Example 36, 4,6-Di-t-butyl-2,2-di-n-pentyl-5-hydroxy-2,3-dihydrobenzofuran]
Creatinine clearance [1, 5]: 724 ± 176 mL/day | Creatinine clearance [1, 6]: 1055 ± 482 mL/day | Creatinine [1, 5]: 0.71 ± 0.14 mg/dL | Creatinine [1, 6]: 0.59 ± 0.23 mg/dL | inhibition at 0.1 µM [2, 7]: -1 ± 7.4% | inhibition at 0.1 µM [2, 8]: -3.2 ± 1.1% | inhibition at 1 µM [2, 7]: 92.2 ± 3.7% | inhibition at 1 µM [2, 8]: 0.6% | inhibition at 10 µM [2, 7]: 97.7 ± 1.1% | inhibition at 10 µM [2, 8]: 78.8 ± 3.6% | Creatinine ([3]; control 0.82 ± 0.07): 0.75 ± 0.11 mg/dL | Urine nitrogen ([3]; control 30.74 ± 10.95): 24.57 ± 10.68 mg/dL | Creatinine clearance ([3]; control 824 ± 108): 837 ± 205 mL/day | Creatinine ([4]; 1 day after ischemia (60 minutes), control 3.89 ± 0.77, P < 0.01): 2.81 ± 0.42 mg/dL | Creatinine clearance ([4]; 1 day after ischemia (60 minutes), control 276 ± 118, P < 0.05): 478 ± 171 mL/day | Creatinine ([4]; 2 days after ischemia (60 minutes), control 3.33 ± 1.90): 1.94 ± 0.30 mg/dL | Creatinine clearance ([4]; 2 days after ischemia (60 minutes), control 363 ± 140, P < 0.01): 594 ± 123 mL/day | Creatinine ([4]; 3 days after ischemia (60 minutes), control 3.19 ± 2.19): 1.86 ± 0.27 mg/dL
